Experimental data as given in patent US20080262000A1, “5-Alkoxyalkyl-6-alkyl-7-Aminoazolopyrimidines, Process for Their Preparation, Their Use for Controlling Harmful Fungi, and Compositions Comprising Them” (BASF Aktiengesellschaft, priority 2005, published 2008).
Where two headings read alike, the source gives them in different places.

Test system: Phytophthora infestans
Assay type: in vivo
Conditions: potted tomato plants, untreated plants 90% infestation
[1] = 1 day of protective treatment, 250 ppm
[2] = 3 days of protective treatment, 250 ppm

CCCCCCCCOCCCc1c(COC)nc2ncnn2c1N [I-4]
infestation [1]: 1%

CCCCCCCCc1c(C)nc2ncnn2c1N [comparative compound A]
infestation (1 day of protective treatment, 16 ppm): 70%
infestation [2]: 90%

CCCCCCCCOCCCc1c(CCC)nc2ncnn2c1N [comparative compound B]
infestation [1]: 90%
infestation [2]: 90%
